According to patent US20120029187A1, “HALOALKYLSULFONANILIDE DERIVATIVE” (Nissan Chemical Industries, Ltd., priority 2009, published 2012):

Legend:
Assay type in all cases: in vivo
[1] = tested on: ducksalad; assay: Test Example 1: herbicidal effects in preemergence treatment under submerged conditions; conditions: dose 2.52 g/a
In short: (§1)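 Submerged conditions, 4 cm water over alluvial soil. Weeds sown and 2.5-leaf rice transplanted; compound applied preemergence to water surface, doses in g per are. Greenhouse, 25 to 30° C., three weeks, then 0–5 mortality rating.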

[2] = tested on: barnyardgrass; assay: as above; conditions: dose 2.52 g/a
In short: as §1

[3] = tested on: bulrush; assay: as above; conditions: dose 2.52 g/a
In short: as §1

[4] = tested on: transplanted rice; assay: Test Example 1: preemergence treatment under submerged conditions, effect on crop; conditions: dose 2.52 g/a
In short: as §1

[5] = tested on: redroot pigweed; assay: Test Example 4: herbicidal effect in foliage treatment; conditions: dose 3.2 g/a, three weeks after application
In short: (§2)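 Doses are given in grams per are of applied compound, sprayed as water-diluted emulsifiable concentrate onto foliage of 14-day-old plants grown at 25 to 30° C. Herbicidal activity was assessed visually on a rating scale after three weeks.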

[6] = tested on: Italian ryegrass; assay: as above; conditions: dose 3.2 g/a, three weeks after application
In short: as §2

[7] = tested on: beadstraw; assay: as above; conditions: dose 3.2 g/a, three weeks after application
In short: as §2

[8] = tested on: water foxtail; assay: as above; conditions: dose 3.2 g/a, three weeks after application
In short: as §2

[9] = tested on: wild oat; assay: as above; conditions: dose 3.2 g/a, three weeks after application
In short: as §2

[10] = tested on: barnyardgrass; assay: as above; conditions: dose 3.2 g/a, three weeks after application
In short: as §2

[11] = tested on: velvetleaf; assay: as above; conditions: dose 3.2 g/a, three weeks after application
In short: as §2

[12] = tested on: common chickweed; assay: as above; conditions: dose 3.2 g/a, three weeks after application
In short: as §2

[13] = tested on: common ragweed; assay: as above; conditions: dose 3.2 g/a, three weeks after application
In short: as §2

[14] = tested on: large crabgrass; assay: as above; conditions: dose 3.2 g/a, three weeks after application
In short: as §2

[15] = tested on: posumbu knotweed; assay: as above; conditions: dose 3.2 g/a, three weeks after application
In short: as §2

[16] = tested on: common lambsquater; assay: as above; conditions: dose 3.2 g/a, three weeks after application
In short: as §2

[17] = tested on: giant foxtail; assay: as above; conditions: dose 3.2 g/a, three weeks after application
In short: as §2

[18] = tested on: ducksalad; assay: Test Example 2: herbicidal effects during the vegetation period under submerged conditions; conditions: treatment during the vegetation period under submerged conditions; dose 2.52 g/a
In short: (§3)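 Barnyardgrass, bulrush and ducksalad were co-sown in alluvial soil flooded to 4 cm and grown in a greenhouse at 25 to 30° C. At the 1- or 2-leaf stage, water-diluted emulsifiable concentrates went onto the water surface at set doses (g/a). Herbicidal effect was scored three weeks later on a graded scale.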

[19] = tested on: barnyardgrass; assay: as above; conditions: treatment during the vegetation period under submerged conditions; dose 2.52 g/a
In short: as §3

[20] = tested on: bulrush; assay: as above; conditions: treatment during the vegetation period under submerged conditions; dose 2.52 g/a
In short: as §3

[21] = tested on: redroot pigweed; assay: Test Example 3: herbicidal effects in soil treatment; conditions: dose 3.2 g/a
In short: (§4)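 Seeds were sown in sterilized diluvial soil and covered with about 1.5 cm of soil. Compounds, formulated as emulsifiable concentrates and diluted with water, were sprayed evenly over the soil surface at set doses in g/a. Herbicidal effect was scored on a rating scale three weeks later.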

[22] = tested on: Italian ryegrass; assay: as above; conditions: dose 3.2 g/a
In short: as §4

[23] = tested on: beadstraw; assay: as above; conditions: dose 3.2 g/a
In short: as §4

[24] = tested on: water foxtail; assay: as above; conditions: dose 3.2 g/a
In short: as §4

[25] = tested on: wild oat; assay: as above; conditions: dose 3.2 g/a
In short: as §4

[26] = tested on: barnyardgrass; assay: as above; conditions: dose 3.2 g/a
In short: as §4

[27] = tested on: velvetleaf; assay: as above; conditions: dose 3.2 g/a
In short: as §4

[28] = tested on: common chickweed; assay: as above; conditions: dose 3.2 g/a
In short: as §4

[29] = tested on: common ragweed; assay: as above; conditions: dose 3.2 g/a
In short: as §4

[30] = tested on: large crabgrass; assay: as above; conditions: dose 3.2 g/a
In short: as §4

[31] = tested on: common lambsquater; assay: as above; conditions: dose 3.2 g/a
In short: as §4

[32] = tested on: giant foxtail; assay: as above; conditions: dose 3.2 g/a
In short: as §4

Structure (SMILES) | C: ducksalad, herbicidal effect (evaluation scale 0-5) [1] | A: barnyardgrass, herbicidal effect (evaluation scale 0-5) [2] | B: bulrush, herbicidal effect (evaluation scale 0-5) [3] | a: transplanted rice, effect on crop (evaluation scale 0-5) [4] | K: redroot pigweed, herbicidal effect [5] | H: Italian ryegrass, herbicidal effect [6] | O: beadstraw, herbicidal effect [7] | G: water foxtail, herbicidal effect [8] | F: wild oat, herbicidal effect [9] | A: barnyardgrass, herbicidal effect [10] | I: velvetleaf, herbicidal effect [11] | N: common chickweed, herbicidal effect [12] | J: common ragweed, herbicidal effect [13] | D: large crabgrass, herbicidal effect [14] | M: posumbu knotweed, herbicidal effect [15] | L: common lambsquater, herbicidal effect [16] | E: giant foxtail, herbicidal effect [17] | C: ducksalad, herbicidal effect (evaluation scale 0-5) [18] | A: barnyardgrass, herbicidal effect (evaluation scale 0-5) [19] | B: bulrush, herbicidal effect (evaluation scale 0-5) [20] | other results
CCCCOC(=O)N(c1ccccc1CN1COC(C)(C)CC1=O)S(=O)(=O)C(F)(F)F [II-25] | 5 (mortality of 90% or above (nearly complete death)) | 5 (mortality of 90% or above (nearly complete death)) | 5 (mortality of 90% or above (nearly complete death)) | 0 (mortality of less than 5% (almost ineffective)) | 0 (mortality of less than 5% (almost ineffective)) | 0 (mortality of less than 5% (almost ineffective)) | 5 (mortality of 90% or above (nearly complete death)) | 5 (mortality of 90% or above (nearly complete death)) | 0 (mortality of less than 5% (almost ineffective)) | 5 (mortality of 90% or above (nearly complete death)) | 4 (mortality of at least 70% and less than 90%) | 4 (mortality of at least 70% and less than 90%) | 3 (mortality of at least 40% and less than 70%) | 5 (mortality of 90% or above (nearly complete death)) | 1 (mortality of at least 5% and less than 20%) | 1 (mortality of at least 5% and less than 20%) | 5 (mortality of 90% or above (nearly complete death)) | 5 (mortality of 90% or above (nearly complete death)) | 5 (mortality of 90% or above (nearly complete death)) | 5 (mortality of 90% or above (nearly complete death)) | K: redroot pigweed, herbicidal effect (evaluation scale 0-5) [21]: 0 (mortality of less than 5% (almost ineffective)); H: Italian ryegrass, herbicidal effect (evaluation scale 0-5) [22]: 1 (mortality of at least 5% and less than 20%); O: beadstraw, herbicidal effect (evaluation scale 0-5) [23]: 5 (mortality of 90% or above (nearly complete death)); G: water foxtail, herbicidal effect (evaluation scale 0-5) [24]: 5 (mortality of 90% or above (nearly complete death)); F: wild oat, herbicidal effect (evaluation scale 0-5) [25]: 0 (mortality of less than 5% (almost ineffective)); A: barnyardgrass, herbicidal effect (evaluation scale 0-5) [26]: 4 (mortality of at least 70% and less than 90%); I: velvetleaf, herbicidal effect (evaluation scale 0-5) [27]: 5 (mortality of 90% or above (nearly complete death)); N: common chickweed, herbicidal effect (evaluation scale 0-5) [28]: 4 (mortality of at least 70% and less than 90%); J: common ragweed, herbicidal effect (evaluation scale 0-5) [29]: 4 (mortality of at least 70% and less than 90%); D: large crabgrass, herbicidal effect (evaluation scale 0-5) [30]: 4 (mortality of at least 70% and less than 90%); L: common lambsquater, herbicidal effect (evaluation scale 0-5) [31]: 0 (mortality of less than 5% (almost ineffective)); E: giant foxtail, herbicidal effect (evaluation scale 0-5) [32]: 3 (mortality of at least 40% and less than 70%)
COC(=O)N(c1ccccc1CN1COC(C)(C)C(F)C1=O)S(=O)(=O)C(F)(F)F (stereo not shown) [II-33] | 5 (mortality of 90% or above (nearly complete death)) | 5 (mortality of 90% or above (nearly complete death)) | 5 (mortality of 90% or above (nearly complete death)) | 0 (mortality of less than 5% (almost ineffective)) | 1 (mortality of at least 5% and less than 20%) | 4 (mortality of at least 70% and less than 90%) | 4 (mortality of at least 70% and less than 90%) | 5 (mortality of 90% or above (nearly complete death)) | 0 (mortality of less than 5% (almost ineffective)) | 4 (mortality of at least 70% and less than 90%) | 3 (mortality of at least 40% and less than 70%) | 3 (mortality of at least 40% and less than 70%) | 3 (mortality of at least 40% and less than 70%) | 4 (mortality of at least 70% and less than 90%) | 3 (mortality of at least 40% and less than 70%) | 0 (mortality of less than 5% (almost ineffective)) | 4 (mortality of at least 70% and less than 90%) | 5 (mortality of 90% or above (nearly complete death)) | 5 (mortality of 90% or above (nearly complete death)) | 5 (mortality of 90% or above (nearly complete death)) | K: redroot pigweed, herbicidal effect (evaluation scale 0-5) [21]: 3 (mortality of at least 40% and less than 70%); H: Italian ryegrass, herbicidal effect (evaluation scale 0-5) [22]: 4 (mortality of at least 70% and less than 90%); O: beadstraw, herbicidal effect (evaluation scale 0-5) [23]: 4 (mortality of at least 70% and less than 90%); G: water foxtail, herbicidal effect (evaluation scale 0-5) [24]: 5 (mortality of 90% or above (nearly complete death)); F: wild oat, herbicidal effect (evaluation scale 0-5) [25]: 0 (mortality of less than 5% (almost ineffective)); A: barnyardgrass, herbicidal effect (evaluation scale 0-5) [26]: 5 (mortality of 90% or above (nearly complete death)); I: velvetleaf, herbicidal effect (evaluation scale 0-5) [27]: 4 (mortality of at least 70% and less than 90%); N: common chickweed, herbicidal effect (evaluation scale 0-5) [28]: 3 (mortality of at least 40% and less than 70%); J: common ragweed, herbicidal effect (evaluation scale 0-5) [29]: 5 (mortality of 90% or above (nearly complete death)); D: large crabgrass, herbicidal effect (evaluation scale 0-5) [30]: 5 (mortality of 90% or above (nearly complete death)); L: common lambsquater, herbicidal effect (evaluation scale 0-5) [31]: 0 (mortality of less than 5% (almost ineffective)); E: giant foxtail, herbicidal effect (evaluation scale 0-5) [32]: 5 (mortality of 90% or above (nearly complete death))
